In patent US6120997A, “Nucleic acid binders having an hydroxyamine motif” (The Scripps Research Institute, priority 1998, dated 2000):
“Also recorded” adds a separate entry of the source. *1 amine or outer side, *2 acyl side, *3 side chain or, on linkers, in order; H or OH if unused. Where a SMILES comes first, the peptide text is derived from it. Bridges are numbered along the chain shown (N, C = ends). [ ]: non-standard residue; d: D form. The star is where a group is joined. X2 = NC1=N[C@@H]([C@H](N[*:1])C(=O)[*:2])C[C@H](O)N1; ΔAla(Z-3-ureido) = NC(=O)N/C=C(\N)C(=O)O; X1 = NCC[C@@H](O)[C@H](N)CC(=O)*; Dap = NC[C@H](N)C(=O)O

Tests used:
[1] = biological target: Neo16-bd; test: SPR binding of aminoglycosides to Neo16-bd aptamer; conditions: HBS-buffer; read-out: Kd, Neo16bd
Protocol: Conditions: 10 mM HEPES (pH 7.4), 0.1 mM EDTA and NaCl as indicated.
The binding of aminoglycosides to RNA is likely to involve substantial ionic contributions and therefore should be strongly influenced by competing buffer ions. […] We studied the salt dependence of neomycin B binding to RBE3, RBE3-neg and Neo16-bd (FIG. 14) by varying the concentration of NaCl included in the injection buffer (10 mM HEPES, pH 7.4, 0.1 mM EDTA). […] This neomycin binding motif was obtained by in vitro selection under conditions of high ionic strength.
To further improve our understanding of specific aminoglycoside recognition, we have also included an artificial aminoglycoside receptor that was evolved in vitro to recognize an aminoglycoside. A number of RNA aptamers for small molecules have been reported in recent years. Among them are aptamers that recognize the aminoglycosides tobramycin, lividomycin and kanamycin.
For comparison, the corresponding values for AS-wt are also included.
(§1) General Procedures for SPR Binding Studies done in Example 5. Samples were prepared by serial dilutions from stock solutions in RNase free microfuge tubes (Ambion) and were centrifuged at 14000 rpm for degassing. Unless otherwise noted, all binding studies were carried out using HBS buffer (Pharmacia Biosensor AB) which was used as obtained. All procedures for binding studies were automated as methods using repetitive cycles of sample injection and regeneration. Typically, buffer was injected in the first two cycles to establish a stable baseline value. Samples were injected at a flowrate of […] using either the KINJECT command. All aminoglycoside samples were injected from autoclaved 7 mm plastic vials that were capped with pierceable plastic crimp caps. To minimize carry over, samples were injected in order of increasing concentration. The running buffer was identical to the injection buffer.

[2] = tested on: Escherichia coli (ATCC 25922); test: minimum inhibitory concentration, broth dilution technique; assay type: cell-based; conditions: E. coli, liquid culture
Excerpt: We reasoned that this modification would provide the cleanest test for probing the ionic contribution, since hydrogen bond donor abilities, electronegativity and steric demand are similar for both functional groups. In order to learn how well the model system correlates with in vivo activity, we checked the new compounds for antibacterial activity against three bacterial strains using the disc method (Kirby-Bauer technique). The minimum inhibitory concentrations (MICs) of the compounds were then determined using the broth dilution technique. For antibiotic testing protocols, see: (a) Disk testing protocols: Phillips, I.; Williams, D., in Laboratory Methods in Antimicrobial Chemotherapy, Garrod, L. (ed.) Churchill Livingstone Press: Edinburgh, 1978, pp. 3-30. (b) MIC determination: Waterworth, P. M., in Laboratory Methods in Antimicrobial Chemotherapy, Garrod, L. (ed.) Churchill Livingstone Press: Edinburgh, 1978, pp. 31-40; Barry, A. L. The Antimicrobic Susceptibility Test: Principles and Practice, Lea and Febiger: Philadelphia (1976). (c) Standards: Lorian, V., Antibiotics in Laboratory Medicine (2nd. ed.), Williams and Wilkins: Baltimore, 1986.
FIG. 39A gives the zone diameters measured for the three bacterial strains. The zone diameters measured for the strains with known antibiotics are well within the accepted limits. […] It is worth noting that some testing protocols recommend overnight growth of the cultures, rather than the minimum time required to obtain good growth of the control. MIC values were tested for several of the control antibiotics using overnight growth, and the MIC values observed were 2-4× greater than those observed for 4-6 hour growth.
Minimal Inhibitory Concentration (MIC) testing. E. coli ATCC 25922 was grown in Mueller-Hinton broth (cation-adjusted, BBL Microbiology Systems) to an optical density of approx. 0.5 (absorbance read at 600 nm), then diluted to an OD600 of 0.1. Samples of antibiotic were prepared in Mueller-Hinton broth, typically a series of 2-fold dilutions from […]. […] The absorbance of each sample was read (1=600 nm), and MIC was considered to be the lowest antibiotic concentration at which the absorbance was less than 1% of the no-antibiotic control.

[3] = tested on: AS-wt; test: SPR binding of aminoglycosides to decoding region A-site model AS-wt; design: species or system E. coli; conditions: for RNA binding, affinity or specificity for AS-wt (in words): Example 4
Protocol: The RNA binding properties of 100-800 were analyzed using a surface plasmon resonance based assay that was recently developed in these laboratories. This assay allows the determination of both affinity and specificity of small molecule-RNA interactions. For the analysis, the compounds were injected over a matrix containing RNA that was immobilized through a biotin tag and the equilibrium binding values were recorded at various concentrations.
Non-linear curve fitting was then used to determine the values of the dissociation constants (KD). The specificity of binding, i.e. the ability to discriminate between different RNA sequences was evaluated by comparing the binding to the target sequence (AS-wt) and the negative control (AS-U1495A). The ratio of KD(AS-U1495A) to KD(AS-wt) was taken to be a representation of the specificity of the binding event.
For the quantitative measurement of aminoglycoside binding to these sequences, we utilized our recently developed SPR-based assay. Biotinylated derivatives of all sequences were prepared by in vitro transcription in the presence of guanosine 5'-monophosphorothioate followed by alkylation with a biotin iodoacetamide derivative. The RNA conjugates were then immobilized onto streptavidin coated SPR-sensorchips for analysis.
In the same manner as illustrated for paromomycin, a panel of aminoglycosides was screened and the results are compiled in the table of FIGS. 46 and 47. In addition to the naturally occuring aminoglycoside antibiotics, some of the compounds in FIG. 46 are synthetically derived, unnatural aminoglycosides. The number of independent determinations for each dissociation constant ranged from 1-3. […] All data were recorded under near physiological salt conditions (HBS-buffer: 150 mM NaCl, 10 mM HEPES, pH7.4, 3.4 mM EDTA) unless noted otherwise. Data points were taken at concentrations ranging from […]. Below this concentration range, surface transport limitations prevent the attainment of equilibrium.
Plasmon resonance and antimicrobial testing for Example 4. Synthesis of the biotinylated RNA and surface plasmon resonance detected binding experiments were performed as described vida supra. Solution conditions: 150 mM NaCl, 10 mM HEPES (pH 7.4), 3.4 mM EDTA. KD determination from the binding curves.
The fitting routine of the program kaleidagraph was used for all calculations. The starting values for a and b were set to 1 and 0 respectively. The number of KD values used in the fitting was adjusted depending on the observed range of equivalents bound but generally varied from 3 to 4.
as §1, with “buffer. Expected values for the equilibrium response of one equivalent of analyte were calculated from the relative molecular weight of the analyte and the immobilized RNA ligand in each flowcells and adjusted with a correction factor of 0.76 which arises from the different molar refractive indices of RNA and the analyte. […]” for “buffer.”

[4] = tested on: bacterial protein synthesis; conditions: cited from earlier work
[5] = tested on: wt-RRE-II; test: SPR binding of aminoglycosides to wt-RRE-II; design: species or system HIV-1; conditions: comparison of aminoglycosides
Protocol: FIGS. 9A and 9B illustrate neomycin B binding to RBE3, RBE3-neg and wt-RRE-II. (A) Semilogarithmic plot. […] Conditions: pH 7.0, 10 mM HEPES, 150 mM NaCl, 0.1 mM EDTA, […].
FIGS. 10A and 10B illustrate paromomycin binding to RBE3, RBE3-neg and wt-RRE-II. (A) Semilogarithmic plot; the dashed line indicates the binding of neomycin B to wt-RRE-II for comparison (B) Scatchard plot. […] Conditions: pH 7.0, 10 mM HEPES, 150 mM NaCl, 0.1 mM EDTA, […].
FIG. 11 illustrates the kinetic stability of wt-RRE-II complexes with neomycin B vs. paromomycin. […] Data points were taken after 1 min of dissociation.
Binding of the aminoglycoside to all three RNA oligonucleotides is observed starting in the low nanomolar concentration range and is non-saturable over the concentration range investigated. […] The high degree of non-specific binding is not surprising considering that aminoglycosides are highly charged polycations that tend to associate nonspecifically with the polyanionic phosphate backbone of RNA. […] Data points corresponding to 0.5 or more equivalents of neomycin B represent equilibrium values and can be analyzed with respect to stoichiometry and affinity of aminoglycoside binding. […] Both sequences bind one molecule of neomycin B with submicromolar affinity followed by weaker association with several additional equivalents of the antibiotic.
Samples were prepared by serial dilutions from stock solutions in RNase free microfuge tubes (Ambion) and were centrifuged at 14000 rpm for degassing. Buffers were filtered through sterile 0.2 &m nylon membranes (Nalgene) under vacuum, except for BIA certified HBS buffer (Pharmacia Biosensor AB) which was used as obtained. All procedures for binding studies were automated as methods using repetitive cycles of sample injection and regeneration. Typically, buffer was injected in the first two cycles to establish a stable baseline value. Samples were injected at a flowrate of 5-10 &L/min using either the KINJECT or the COINJECT command. All aminoglycoside and Rev27 samples were injected from autoclaved 7 mm plastic vials that were capped with pierceable plastic crimp caps. To minimize carry over, samples were injected in order of increasing concentration. The running buffer was identical to the injection buffer, except for the salt dependence study where a single running buffer was used for all injections. Expected values for the equilibrium response of one equivalent of analyte were calculated from the relative molecular weight of the analyte and the immobilized RNA ligand in each flowcells. These values were adjusted by multiplying with a factor of 0.8 or 0.57 for Rev27 or aminoglycosides respectively. These factors arise from the different molar refractive indices of RNA and the analyte and were determined from the Scatchard plot x-axis intercepts of the 1:1 binding isotherms for Rev27 and neomycin B.
Binding Studies with Aminoglycosides.
Neomycin B sulfate (Fluka) was converted to the free base by passing it through Amberlite IRA 400 (OH-- form) and purified by ion exchange chromatography on Dowex 1-X2 100 to remove neomycin C; the purity of neomycin B was verified by NMR in D2 O. Paromomycin sulfate was obtained from Sigma and used as received. Samples were prepared by dilution from 10 mM stock solutions in injection buffer (10 mM HEPES, pH 7.4, 150 mM NaCl, 3.4 mM EDTA). Data points were taken after an association phase of 30 min. A 2 min regeneration pulse of 150 mM Na2 SO4 in injection buffer was used between injections. […]

[6] = NMR dilution experiments of 1:1 salt complexes in DMSO-d6 (phosphodiester recognition); assay type: binding
Protocol: [a] NMR dilution experiments with the preformed 1:1 salt complexes were performed in DMSO-d6 at […]; [b] calculated maximum shift at full complexation in ppm.
In order to determine binding constants we prepared defined 1:1 salt complexes and measured their dissociation upon stepwise dilution in [D6 ]DMSO by following the shifts of NH and OH resonances. The chemical shift values of the totally uncomplexed state (o) and the fully complexed state (n) and the stability constant Ka were subsequently determined by curve fitting. […] In all cases, data could be fitted to a 1:1 binding isotherm. […] This order mirrors the order of binding affinities and is consistent with the interpretation that differential involvement of the hydroxyl group in hydrogen bonding provides for the energetic differences in complexation.

Compound | Kd [1] [nM] | antibacterial activity / MIC compared with neomycin B (in words) [2] | RNA binding, affinity or specificity for AS-wt (in words) [3] | effect on bacterial protein synthesis (in words) [4] | other results
NCCCNCCO[C@H]1[C@@H](O)[C@H](O[C@@H]2[C@@H](O)[C@H](N)C[C@H](N)[C@H]2O[C@H]2O[C@H](CN)[C@@H](O)[C@H](O)[C@H]2N)O[C@@H]1CO [Compound 600, 3"-O-2-N-(3-propylamino)-ethylamino ribostamycin] | < 10 | very nearly the same anti microbial activity as neomycin B | diminishing returns on the affinity without affecting the specificity; also recorded: significantly lower binding affinities toward the AS wt RNA than neomycin |  | 
CN(CC(=O)O)NC(=O)C[C@H](N)C[C@@H](O)CN [Negamycin] |  |  |  | induces miscoding during translation | 
[H]/N=C(/N)N[C@H]1[C@H](O)[C@@H](O)[C@H](O[C@@H]2O[C@@H](C)[C@](O)(C=O)[C@H]2O[C@@H]2O[C@@H](CO)[C@H](O)[C@@H](O)[C@@H]2NC)[C@@H](N/C(N)=N\[H])[C@@H]1O [Streptomycin] |  |  | much reduced binding affinity and no specificity |  | relative binding affinity for wt-RRE-II (in words) [5]: weakest; specificity for AS-wt over negative controls (in words) ([3]; Example 5, HBS-buffer): does not show any specificity for AS-wt
CO[C@H]1O[C@H](CN)[C@@H](O)[C@H](OCc2ccccc2)[C@H]1OCc1ccccc1 [Compound 2] |  |  |  |  | dimethylphosphate binding affinity (in words) [6]: higher affinity than bicyclic guanidine 6; selectivity for dimethylphosphate over chloride [6]: 10 fold
NCC[C@@H](O)[C@H](N)CC(=O)N[C@H]1CNC(=O)[C@H]([C@H]2C[C@H](O)NC(N)=N2)NC(=O)/C(=C/NC(N)=O)NC(=O)[C@H](CO)NC(=O)[C@H](CO)NC1=O [Tuberactinomycin A] (X1-[Dap]SS[ΔAla(Z-3-ureido)][X2]; lactam 1-C) |  |  |  | inhibits both initiation and elongation steps of bacterial protein synthesis | 
NCCO[C@H]1[C@@H](O)[C@H](O[C@@H]2[C@@H](O)[C@H](N)C[C@H](N)[C@H]2O[C@H]2O[C@H](CN)[C@@H](O)[C@H](O)[C@H]2N)O[C@@H]1CO [Compound 500, 3"-O-Ethyl-2-amino ribostamycin] | < 10 | very nearly the same anti microbial activity as neomycin B | binding affinity goes up by an order of magnitude but specificity is unaffected; also recorded: significantly lower binding affinities toward the AS wt RNA than neomycin |  | 
